Data on one cell line can be found in the supplement of paper PMC10307832.

Experiment in all cases: relative viability (nuclei count vs DMSO), 5 days (fraction); higher = more cells survive
Compound in the assay “IMD-0354 + Decitabine”: O=C(Nc1cc(C(F)(F)F)cc(C(F)(F)F)c1)c1cc(Cl)ccc1O [IMD-0354] + Nc1ncn([C@H]2C[C@H](O)[C@@H](CO)O2)c(=O)n1 [Decitabine] (partner 2 µM)
The gist of the method: (§1)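 Each reported value is a median over duplicate plates. It expresses relative viability: treated-well nuclei count divided by vehicle-well nuclei count. Lung cancer cell lines in 1536-well plates were dosed by pin tool a day after seeding, alone with one drug or with a fixed anchor-drug dose plus five library-drug doses (not always all listed) in √10 steps, and nuclei were counted after 5 days.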

Compound in the assay “CX-5461 + Linsitinib”: Cc1cnc(CNC(=O)c2c(=O)c3ccc(N4CCCN(C)CC4)nc3n3c2sc2ccccc23)cn1 [CX-5461] + C[C@]1(O)C[C@@H](c2nc(-c3ccc4ccc(-c5ccccc5)nc4c3)c3c(N)nccn32)C1 [Linsitinib] (partner 1 µM)
The method, boiled down:
as §1

Compound in the assay “IMD-0354 + Tozasertib”: O=C(Nc1cc(C(F)(F)F)cc(C(F)(F)F)c1)c1cc(Cl)ccc1O [IMD-0354] + Cc1cc(Nc2cc(N3CCN(C)CC3)nc(Sc3ccc(NC(=O)C4CC4)cc3)n2)n[nH]1 [Tozasertib] (partner 0.1 µM)
The gist of the method: as §1

Compound in the assay “CX-5461 + Lapatinib”: Cc1cnc(CNC(=O)c2c(=O)c3ccc(N4CCCN(C)CC4)nc3n3c2sc2ccccc23)cn1 [CX-5461] + CS(=O)(=O)CCNCc1ccc(-c2ccc3ncnc(Nc4ccc(OCc5cccc(F)c5)c(Cl)c4)c3c2)o1 [Lapatinib] (partner 2 µM)
The method, boiled down:
as §1

Turning to UMC-11, the relative viability was found to be 0.64 in the assay with IMD-0354 + Decitabine (first compound 0.04 µM); 0.646 in the assay with IMD-0354 + Decitabine (first compound 0.1265 µM); 0.522 with IMD-0354 + Decitabine (first compound 0.4 µM); 0.174 with IMD-0354 + Decitabine (first compound 1.265 µM); 0.176 in the assay with IMD-0354 + Decitabine (first compound 4 µM); 0.907 with CX-5461 + Linsitinib (first compound 0.01 µM). Besides, the relative viability worked out at 1.07 with CX-5461 + Linsitinib (first compound 0.03162 µM); 1.02 in the assay with CX-5461 + Linsitinib (first compound 0.1 µM); 0.92 with CX-5461 + Linsitinib (first compound 0.3162 µM); 0.807 in the assay with CX-5461 + Linsitinib (first compound 1 µM); 0.202 with IMD-0354 + Tozasertib (first compound 0.04 µM); 0.219 in the assay with IMD-0354 + Tozasertib (first compound 0.1265 µM). Further, the relative viability with IMD-0354 + Tozasertib (first compound 0.4 µM) amounted to 0.187; with IMD-0354 + Tozasertib (first compound 1.265 µM), 0.182; with IMD-0354 + Tozasertib (first compound 4 µM) it was 0.203; with CX-5461 + Lapatinib (first compound 0.01 µM), 1.07; in the assay with CX-5461 + Lapatinib (first compound 0.03162 µM), 1.01; with CX-5461 + Lapatinib (first compound 0.1 µM) it was 0.855. Also, the relative viability with CX-5461 + Lapatinib (first compound 0.3162 µM) worked out at 0.454; with CX-5461 + Lapatinib (first compound 1 µM) it was 0.269.
